Measured values: PubChem BioAssay AID248 (DTP/NCI, 2004)
Several values for one entry are separate records, joined by “and”; a condition that tells them apart may be missing. Equal entries are not always repeated. Inconclusive results and toxic doses are left out. Cut-off read from the data, not from the text of the source: active = T/C of 150% or more; inactive = T/C below 125%. Square brackets hold non-standard residues; d marks the D form. Peptide text beside a SMILES is read from it. * marks the point of attachment. ξ: configuration not given here. Cbz = O=C(OCc1ccccc1)*; ξI = CCC(C)C(N)C(=O)O; OBn = c1ccc(CO*)cc1

Tested on: L1210 leukemia ip in BDF1 mice, survival T/C
Test: NCI In Vivo Anticancer Drug Screen. Data for tumor model L1210 Leukemia (intraperitoneal) in B6D2F1 (BDF1) mice
Conditions: endpoint: mean survival time, higher = longer survival
Method in brief: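 Read-out is survival time, reported as the treated-group measurement over the vehicle-control measurement.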

[1] = dose: 100.0 mg/kg/injection, schedule: Q04DX003 (ip), vehicle: saline with Tween-80
[2] = dose: 200.0 mg/kg/injection, schedule: Q04DX003 (ip), vehicle: saline with Tween-80
[3] = dose: 400.0 mg/kg/injection, schedule: Q04DX003 (ip), vehicle: saline with Tween-80
[4] = dose: 100.0 mg/kg/injection, schedule: Q01DX009 (ip), vehicle: Klucel (hydroxypropylcellulose) (HPC)
[5] = dose: 100.0 mg/kg/injection, schedule: Q04DX003 (ip), vehicle: Klucel (hydroxypropylcellulose) (HPC)
[6] = dose: 200.0 mg/kg/injection, schedule: Q01DX009 (ip), vehicle: Klucel (hydroxypropylcellulose) (HPC)
[7] = dose: 200.0 mg/kg/injection, schedule: Q04DX003 (ip), vehicle: Klucel (hydroxypropylcellulose) (HPC)
[8] = dose: 400.0 mg/kg/injection, schedule: Q01DX009 (ip), vehicle: Klucel (hydroxypropylcellulose) (HPC)
[9] = dose: 400.0 mg/kg/injection, schedule: Q04DX003 (ip), vehicle: Klucel (hydroxypropylcellulose) (HPC)
[10] = dose: 25.0 mg/kg/injection, schedule: Q04DX002 (ip), vehicle: saline with Tween-80
[11] = dose: 50.0 mg/kg/injection, schedule: Q04DX002 (ip), vehicle: saline with Tween-80
[12] = dose: 25.0 mg/kg/injection, schedule: Q01DX009 (ip), vehicle: Klucel (hydroxypropylcellulose) (HPC)
[13] = dose: 50.0 mg/kg/injection, schedule: Q01DX009 (ip), vehicle: Klucel (hydroxypropylcellulose) (HPC)
[14] = dose: 75.0 mg/kg/injection, schedule: Q01DX001 (ip), vehicle: saline
[15] = dose: 150.0 mg/kg/injection, schedule: Q01DX001 (ip), vehicle: saline
[16] = dose: 100.0 mg/kg/injection, schedule: Q01DX009 (ip), vehicle: saline with Tween-80
[17] = dose: 200.0 mg/kg/injection, schedule: Q01DX009 (ip), vehicle: saline with Tween-80
[18] = dose: 50.0 mg/kg/injection, schedule: Q01DX009 (ip), vehicle: saline with Tween-80

Measured: T/C

CCC(C)C(NC(=O)CNC(=O)OCc1ccccc1)C(=O)OCc1ccccc1 (stereo not drawn) (Cbz-Gly-[ξI]-OBn)
inactive: dose: 100.0 mg/kg/injection, schedule: Q04DX003 (ip), vehicle: other 104 % of control | dose: 200.0 mg/kg/injection, schedule: Q04DX003 (ip), vehicle: other 98 % of control | dose: 400.0 mg/kg/injection, schedule: Q04DX003 (ip), vehicle: other 103 % of control

CC(=O)Nc1cc(C)ccc1C
inactive: dose: 50.0 mg/kg/injection, schedule: Q01DX001 (ip), vehicle: Klucel (hydroxypropylcellulose) (HPC) 101 % of control | dose: 100.0 mg/kg/injection, schedule: Q01DX001 (ip), vehicle: Klucel (hydroxypropylcellulose) (HPC) 91 % of control and 101 % of control | dose: 200.0 mg/kg/injection, schedule: Q01DX001 (ip), vehicle: Klucel (hydroxypropylcellulose) (HPC) 94 % of control and 104 % of control | dose: 400.0 mg/kg/injection, schedule: Q01DX001 (ip), vehicle: Klucel (hydroxypropylcellulose) (HPC) 94 % of control

COC(=O)c1cc([N+](=O)[O-])ccc1Br
inactive: [1] 101 % of control | [2] 93 % of control | [3] 104 % of control

Brc1ccc2c(c1)oc1ccccc12
inactive: [4] 102 % of control | [5] 105 % of control | [6] 97 % of control | [7] 107 % of control | [8] 100 % of control | [9] 91 % of control

C1CSCS1
inactive: dose: 12.5 mg/kg/injection, schedule: Q04DX002 (ip), vehicle: saline with Tween-80 103 % of control | [10] 106 % of control | [11] 106 % of control

COc1cc(CC(C)N)cc(OC)c1OC (centres undefined)
inactive: dose: 50.0 mg/kg/injection, schedule: Q01DX009 (ip), vehicle: saline 110 % of control | dose: 100.0 mg/kg/injection, schedule: Q01DX009 (ip), vehicle: saline 108 % of control | dose: 200.0 mg/kg/injection, schedule: Q01DX009 (ip), vehicle: saline 103 % of control

COc1ccc(C(=S)N(C)NC(=O)CC(=O)NN(C)C(=S)c2ccc(OC)cc2)cc1
inactive: dose: 100.0 mg/kg/injection, schedule: Q01DX009 (ip), vehicle: gum acacia 95 % of control | dose: 100.0 mg/kg/injection, schedule: Q04DX003 (ip), vehicle: gum acacia 92 % of control | dose: 200.0 mg/kg/injection, schedule: Q01DX009 (ip), vehicle: gum acacia 90 % of control | dose: 200.0 mg/kg/injection, schedule: Q04DX003 (ip), vehicle: gum acacia 95 % of control | dose: 400.0 mg/kg/injection, schedule: Q04DX003 (ip), vehicle: gum acacia 96 % of control

c1ccc(C2NC2c2ccccc2)cc1 (centres undefined)
inactive: dose: 50.0 mg/kg/injection, schedule: Q01DX001 (ip), vehicle: carboxymethylcellulose (CMC) 112 % of control | dose: 100.0 mg/kg/injection, schedule: Q01DX001 (ip), vehicle: carboxymethylcellulose (CMC) 97 % of control | [5] 103 % of control | dose: 200.0 mg/kg/injection, schedule: Q01DX001 (ip), vehicle: carboxymethylcellulose (CMC) 97 % of control | [7] 95 % of control | [9] 91 % of control

CC(C)c1ccccc1NC1=NCCO1
inactive: dose: 12.5 mg/kg/injection, schedule: Q01DX009 (ip), vehicle: Klucel (hydroxypropylcellulose) (HPC) 86 % of control | [12] 89 % of control | [10] 101 % of control | [13] 96 % of control and 89 % of control | [11] 96 % of control | dose: 100.0 mg/kg/injection, schedule: Q04DX002 (ip), vehicle: saline with Tween-80 86 % of control | dose: 200.0 mg/kg/injection, schedule: Q04DX002 (ip), vehicle: saline with Tween-80 86 % of control

O=C1C2CCC1C(N1CCCC1)CC2 (centres undefined)
inactive: [14] 101 % of control | [15] 104 % of control

O=C(CC(O)(C(F)(F)F)C(F)(F)F)c1cccc2ccccc12
inactive: [5] 97 % of control | [7] 90 % of control | [9] 90 % of control

Cc1ccc(NS(=O)(=O)c2ccc(F)cc2)cc1C
inactive: [4] 95 % of control | [5] 95 % of control | [6] 95 % of control | [7] 105 % of control | [8] 97 % of control | [9] 101 % of control

N#CCCN(CCC#N)C(=O)Cl
inactive: dose: 100.0 mg/kg/injection, schedule: Q01DX001 (sc), vehicle: olive oil, sesame oil, peanut oil 97 % of control | dose: 200.0 mg/kg/injection, schedule: Q01DX001 (sc), vehicle: olive oil, sesame oil, peanut oil 97 % of control | dose: 400.0 mg/kg/injection, schedule: Q01DX001 (sc), vehicle: olive oil, sesame oil, peanut oil 98 % of control

C=CCc1cccc(OC)c1OCCN(CC)CC
inactive: dose: 6.25 mg/kg/injection, schedule: Q01DX009 (ip), vehicle: saline 111 % of control | dose: 12.5 mg/kg/injection, schedule: Q01DX009 (ip), vehicle: saline 102 % of control | dose: 25.0 mg/kg/injection, schedule: Q01DX009 (ip), vehicle: saline 100 % of control

CCOC(=O)CCC(=O)c1cccc([N+](=O)[O-])c1
inactive: [16] 98 % of control | [17] 96 % of control | dose: 400.0 mg/kg/injection, schedule: Q01DX009 (ip), vehicle: saline with Tween-80 96 % of control

O=C1C2CCC(C2)C1C(O)(C(F)(F)F)C(F)(F)F (centres undefined)
inactive: dose: 25.0 mg/kg/injection, schedule: Q01DX009 (ip), vehicle: saline with Tween-80 101 % of control | [18] 100 % of control | dose: 50.0 mg/kg/injection, schedule: Q04DX003 (ip), vehicle: saline with Tween-80 101 % of control | [16] 91 % of control | [1] 98 % of control | [2] 91 % of control

CN(C)C1=CC(=N/S(=O)(=O)c2ccccc2)/C(N(C)C)=CC/1=N/S(=O)(=O)c1ccccc1
inactive: [1] 88 % of control | [2] 90 % of control | [3] 87 % of control

COc1ccc(OC)c(NC(=O)N(CCO)C2CCCCC2)c1
inactive: [5] 90 % of control | [9] 97 % of control

ClCCCCOCCl
inactive: [18] 101 % of control | [16] 97 % of control | [17] 87 % of control

OC(c1nc2ccccc2[nH]1)C(O)c1nc2ccccc2[nH]1 (centres undefined)
inactive: [14] 102 % of control | [15] 109 % of control | dose: 300.0 mg/kg/injection, schedule: Q01DX001 (ip), vehicle: saline 102 % of control

O=C(O)c1c(F)c(F)c(-c2c(F)c(F)c(C(=O)O)c(F)c2F)c(F)c1F
inactive: dose: 100.0 mg/kg/injection, schedule: Q01DX001 (ip), vehicle: saline with Tween-80 93 % of control | dose: 200.0 mg/kg/injection, schedule: Q01DX001 (ip), vehicle: saline with Tween-80 95 % of control | dose: 400.0 mg/kg/injection, schedule: Q01DX001 (ip), vehicle: saline with Tween-80 93 % of control

Cc1ccc(C(=O)N/N=C/c2ccc(N(C)C)cc2Cl)cc1
inactive: dose: 100.0 mg/kg/injection, schedule: Q04DX002 (ip), vehicle: saline 105 % of control | dose: 200.0 mg/kg/injection, schedule: Q04DX002 (ip), vehicle: saline 108 % of control | dose: 400.0 mg/kg/injection, schedule: Q04DX002 (ip), vehicle: saline 105 % of control

O=S(=O)(N=C1C(Cl)=C(Cl)C(=NS(=O)(=O)c2ccccc2)C(Cl)=C1Cl)c1ccccc1
inactive: [4] 98 % of control | [6] 100 % of control | [8] 101 % of control

CCCCNC(=O)Nc1ccc(O)c(C(=O)O)c1
inactive: [12] 110 % of control | [13] 93 % of control | [4] 100 % of control

NOCc1c(F)c(F)c(F)c(F)c1F
inactive: dose: 100.0 mg/kg/injection, schedule: Q04DX003 (ip), vehicle: saline sonified 93 % of control | dose: 200.0 mg/kg/injection, schedule: Q04DX003 (ip), vehicle: saline sonified 104 % of control

Cc1cc(C)c2c(=O)[nH][nH]c2n1
inactive: [18] 105 % of control | [16] 100 % of control | [17] 91 % of control
